Test results taken from the supplement of paper PMC4862054.

How the values were obtained:
Details in all cases: incubation time: 72 h
Hs578T [1] = assay: normalised viability (% of control), CellTiter-Blue; higher = more viable cells (about 100 = DMSO control)
Procedure, shortened: (§1)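 Breast cancer cell lines were treated for 72 h in 384-well format and measured by CellTiter-Blue fluorescence at 560/590 nm. Results were normalised per plate to vehicle (100) and a positive kill control (0). The entry is normalised viability at a single listed concentration of the series.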

CAL-51 [2] = assay: as above
Procedure, shortened: as §1

MFM-223 [3] = assay: as above
Procedure, shortened: as §1

HCC1143 [4] = assay: as above
Procedure, shortened: as §1

MDA-MB-231 [5] = assay: as above
Procedure, shortened: as §1

MDA-MB-436 [6] = assay: as above
Procedure, shortened: as §1

MDA-MB-468 [7] = assay: as above
Procedure, shortened: as §1

DU-4475 [8] = assay: as above
Procedure, shortened: as §1

HCC1937 [9] = assay: as above
Procedure, shortened: as §1

Hs578T [10] = assay: normalised viability (% of control), CellTiter-Blue; higher = more viable cells (100 = DMSO, 0 = benzethonium chloride kill control)
Description: (§2)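 DSRT, CellTiter-Blue viability, 72 h incubation. Signal is normalised to DMSO and benzethonium chloride controls. Value is the normalised response at dose 1.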

CAL-51 [11] = assay: as above
Description: as §2

BT-549 = assay: as above
Description: as §2

CAL-85-1 = assay: as above
Description: as §2

HCC1599 = assay: as above
Description: as §2

HDQ-P1 = assay: as above
Description: as §2

MFM-223 [12] = assay: as above
Description: as §2

BT-474 = assay: as above
Description: as §2

MDA-MB-453 = assay: as above
Description: as §2

CAL-120 = assay: as above
Description: as §2

HCC1143 [13] = assay: as above
Description: as §2

CAL-148 = assay: as above
Description: as §2

MDA-MB-231 [14] = assay: as above
Description: as §2

MDA-MB-436 [15] = assay: as above
Description: as §2

MDA-MB-468 [16] = assay: as above
Description: as §2

DU-4475 [17] = assay: as above
Description: as §2

SK-BR-3 = assay: as above
Description: as §2

HCC1937 [18] = assay: as above
Description: as §2

CO[C@@H](C(=O)N1Cc2[nH]nc(NC(=O)c3ccc(N4CCN(C)CC4)cc3)c2C1)c1ccccc1 [Danusertib]
Details	normalised viability [%]
BT-474, 1 nM	101
BT-549, 1 nM	109
CAL-51 [2], 3 nM	116
CAL-51 [2], 30 nM	116
CAL-51 [2], 100 nM	74.3
CAL-51 [11], 1 nM	116
CAL-85-1, 1 nM	77.2
CAL-120, 1 nM	81
CAL-148, 1 nM	101
DU-4475 [8], 3 nM	89.8
DU-4475 [8], 30 nM	88.2
DU-4475 [8], 100 nM	70.6
DU-4475 [17], 1 nM	107
HCC1143 [4], 10 nM	78.2
HCC1143 [4], 1000 nM	61.8
HCC1143 [4], 10000 nM	31.3
HCC1143 [13], 1 nM	99.3
HCC1599, 1 nM	94.1
HCC1937 [9], 10 nM	99.8
HCC1937 [9], 1000 nM	41.7
HCC1937 [9], 10000 nM	41
HCC1937 [18], 1 nM	91.3
HDQ-P1, 1 nM	110
Hs578T [1], 10 nM	95.4
Hs578T [1], 1000 nM	59.3
Hs578T [1], 10000 nM	23.9
Hs578T [10], 1 nM	96.6
MDA-MB-231 [5], 10 nM	87.9
MDA-MB-231 [5], 1000 nM	56.7
MDA-MB-231 [5], 10000 nM	19.2
MDA-MB-231 [14], 1 nM	101
MDA-MB-436 [6], 10 nM	89.7
MDA-MB-436 [6], 1000 nM	72
MDA-MB-436 [6], 10000 nM	60.9
MDA-MB-436 [15], 1 nM	96.5
MDA-MB-453, 1 nM	84.3
MDA-MB-468 [7], 10 nM	107
MDA-MB-468 [7], 1000 nM	36.2
MDA-MB-468 [7], 10000 nM	48.1
MDA-MB-468 [16], 1 nM	98.7
MFM-223 [3], 10 nM	71.3
MFM-223 [3], 1000 nM	36.9
MFM-223 [3], 10000 nM	55.4
MFM-223 [12], 1 nM	53.6
SK-BR-3, 1 nM	79.4

O=C(Nc1c[nH]nc1-c1nc2ccc(CN3CCOCC3)cc2[nH]1)NC1CC1 [AT9283]
Details	normalised viability [%]
BT-474, 1 nM	96.6
BT-549, 1 nM	98.5
CAL-51 [2], 3 nM	107
CAL-51 [2], 30 nM	97.8
CAL-51 [2], 100 nM	56.3
CAL-51 [11], 1 nM	107
CAL-85-1, 1 nM	88.9
CAL-120, 1 nM	87.1
CAL-148, 1 nM	91.3
DU-4475 [8], 3 nM	91.2
DU-4475 [8], 30 nM	94.1
DU-4475 [8], 100 nM	43.9
DU-4475 [17], 1 nM	95.5
HCC1143 [4], 10 nM	77.8
HCC1143 [4], 1000 nM	51.8
HCC1143 [4], 10000 nM	13.9
HCC1143 [13], 1 nM	87.1
HCC1599, 1 nM	101
HCC1937 [9], 10 nM	106
HCC1937 [9], 1000 nM	43.4
HCC1937 [9], 10000 nM	15.5
HCC1937 [18], 1 nM	95.6
HDQ-P1, 1 nM	103
Hs578T [1], 10 nM	124
Hs578T [1], 1000 nM	33.9
Hs578T [1], 10000 nM	1.79
Hs578T [10], 1 nM	117
MDA-MB-231 [5], 10 nM	87.5
MDA-MB-231 [5], 1000 nM	43.3
MDA-MB-231 [5], 10000 nM	5.14
MDA-MB-231 [14], 1 nM	91.6
MDA-MB-436 [6], 10 nM	97.4
MDA-MB-436 [6], 1000 nM	64.2
MDA-MB-436 [6], 10000 nM	29.6
MDA-MB-436 [15], 1 nM	98.8
MDA-MB-453, 1 nM	100
MDA-MB-468 [7], 10 nM	108
MDA-MB-468 [7], 1000 nM	43.1
MDA-MB-468 [7], 10000 nM	6.32
MDA-MB-468 [16], 1 nM	114
MFM-223 [3], 10 nM	93.4
MFM-223 [3], 1000 nM	57.4
MFM-223 [3], 10000 nM	19
MFM-223 [12], 1 nM	102
SK-BR-3, 1 nM	104

C[C@]12C=CC(=O)C=C1CC[C@@H]1[C@@H]2[C@@H](O)C[C@@]2(C)[C@H]1CC[C@]2(O)C(=O)CO [Prednisolone]
Details	normalised viability [%]
BT-474, 1 nM	117
BT-549, 1 nM	101
CAL-51 [2], 3 nM	102
CAL-51 [2], 30 nM	98.3
CAL-51 [2], 100 nM	98.4
CAL-51 [11], 1 nM	104
CAL-85-1, 1 nM	97.7
CAL-120, 1 nM	83.5
CAL-148, 1 nM	111
DU-4475 [8], 3 nM	107
DU-4475 [8], 30 nM	116
DU-4475 [8], 100 nM	98.1
DU-4475 [17], 1 nM	95.6
HCC1143 [4], 10 nM	98
HCC1143 [4], 1000 nM	87.9
HCC1143 [4], 10000 nM	96.3
HCC1143 [13], 1 nM	95.1
HCC1599, 1 nM	118
HCC1937 [9], 10 nM	91.7
HCC1937 [9], 1000 nM	108
HCC1937 [9], 10000 nM	99.1
HCC1937 [18], 1 nM	88.8
HDQ-P1, 1 nM	85.7
Hs578T [1], 10 nM	111
Hs578T [1], 1000 nM	107
Hs578T [1], 10000 nM	107
Hs578T [10], 1 nM	122
MDA-MB-231 [5], 10 nM	113
MDA-MB-231 [5], 1000 nM	129
MDA-MB-231 [5], 10000 nM	117
MDA-MB-231 [14], 1 nM	105
MDA-MB-436 [6], 10 nM	82.4
MDA-MB-436 [6], 1000 nM	73.5
MDA-MB-436 [6], 10000 nM	108
MDA-MB-436 [15], 1 nM	108
MDA-MB-453, 1 nM	100
MDA-MB-468 [7], 10 nM	102
MDA-MB-468 [7], 1000 nM	115
MDA-MB-468 [7], 10000 nM	101
MDA-MB-468 [16], 1 nM	109
MFM-223 [3], 10 nM	95.7
MFM-223 [3], 1000 nM	100
MFM-223 [3], 10000 nM	96.9
MFM-223 [12], 1 nM	102
SK-BR-3, 1 nM	130

Cc1cccc(-c2nn3c(c2-c2ccnc4ccc(C(N)=O)cc24)CCC3)n1
Details	normalised viability [%]
BT-474, 0.1 nM	116
BT-549, 0.1 nM	104
CAL-51 [2], 0.3 nM	100
CAL-51 [2], 3 nM	93.8
CAL-51 [2], 10 nM	96.5
CAL-51 [11], 0.1 nM	93.5
CAL-85-1, 0.1 nM	92.6
CAL-120, 0.1 nM	98.2
CAL-148, 0.1 nM	104
DU-4475 [8], 0.3 nM	113
DU-4475 [8], 3 nM	100
DU-4475 [8], 10 nM	115
DU-4475 [17], 0.1 nM	113
HCC1143 [4], 1 nM	98.3
HCC1143 [4], 100 nM	91
HCC1143 [4], 1000 nM	91.1
HCC1143 [13], 0.1 nM	110
HCC1599, 0.1 nM	99.3
HCC1937 [9], 1 nM	157
HCC1937 [9], 100 nM	108
HCC1937 [9], 1000 nM	126
HCC1937 [18], 0.1 nM	91.3
HDQ-P1, 0.1 nM	109
Hs578T [1], 1 nM	106
Hs578T [1], 100 nM	112
Hs578T [1], 1000 nM	89.9
Hs578T [10], 0.1 nM	113
MDA-MB-231 [5], 1 nM	109
MDA-MB-231 [5], 100 nM	128
MDA-MB-231 [5], 1000 nM	111
MDA-MB-231 [14], 0.1 nM	113
MDA-MB-436 [6], 1 nM	120
MDA-MB-436 [6], 100 nM	96.9
MDA-MB-436 [6], 1000 nM	128
MDA-MB-436 [15], 0.1 nM	128
MDA-MB-453, 0.1 nM	108
MDA-MB-468 [7], 1 nM	106
MDA-MB-468 [7], 100 nM	120
MDA-MB-468 [7], 1000 nM	105
MDA-MB-468 [16], 0.1 nM	108
MFM-223 [3], 1 nM	96.6
MFM-223 [3], 100 nM	96.5
MFM-223 [3], 1000 nM	93.6
MFM-223 [12], 0.1 nM	103
SK-BR-3, 0.1 nM	106
